Results from ChEMBL document CHEMBL2396621, “Design, synthesis and biological evaluation of 2-mercapto-3-phenethylquinazoline bearing anilide fragments as potential antitumor agents: molecular docking study” (2013).

Experiments:
Type in all cases: functional
[1] = test system: TK-10; assay: Cytotoxicity against human TK10 cells assessed as growth inhibition at 10 uM after 48 hrs by coulter counter analysis; conditions: TK-10, 48 h, read-out: GI
[2] = test system: OVCAR-3; assay: Cytotoxicity against human OVCAR3 cells assessed as growth inhibition at 10 uM after 48 hrs by coulter counter analysis; conditions: OVCAR-3, 48 h, read-out: GI
[3] = test system: PC-3; assay: Cytotoxicity against human PC3 cells assessed as growth inhibition at 10 uM after 48 hrs by coulter counter analysis; conditions: PC-3, 48 h, read-out: GI
[4] = test system: HCT-15; assay: Cytotoxicity against human HCT15 cells assessed as growth inhibition at 10 uM after 48 hrs by coulter counter analysis; conditions: HCT-15, 48 h, read-out: GI
[5] = test system: DU-145; assay: Cytotoxicity against human DU145 cells assessed as growth inhibition at 10 uM after 48 hrs by coulter counter analysis; conditions: DU-145, 48 h, read-out: GI
[6] = test system: A549; assay: Cytotoxicity against human A549 cells assessed as growth inhibition at 10 uM after 48 hrs by coulter counter analysis; conditions: A549, 48 h, read-out: GI
[7] = test system: CAKI-1; assay: Cytotoxicity against human Caki1 cells assessed as growth inhibition at 10 uM after 48 hrs by coulter counter analysis; conditions: CAKI-1, 48 h, read-out: GI
[8] = test system: KM12; assay: Cytotoxicity against human KM12 cells assessed as growth inhibition at 10 uM after 48 hrs by coulter counter analysis; conditions: KM12, 48 h, read-out: GI
[9] = test system: NCI-H522; assay: Cytotoxicity against human NCI-H522 cells assessed as growth inhibition at 10 uM after 48 hrs by coulter counter analysis; conditions: NCI-H522, 48 h, read-out: GI
[10] = Cytotoxicity against human NCI-ADR-RES cells assessed as growth inhibition at 10 uM after 48 hrs by coulter counter analysis; conditions: read-out: GI
[11] = test system: Malme-3M; assay: Cytotoxicity against human MALME-3M cells assessed as growth inhibition at 10 uM after 48 hrs by coulter counter analysis; conditions: read-out: GI
[12] = test system: SK-MEL-5; assay: Cytotoxicity against human SK-MEL-5 cells assessed as growth inhibition at 10 uM after 48 hrs by coulter counter analysis; conditions: SK-MEL-5, 48 h, read-out: GI
[13] = test system: SNB-19; assay: Cytotoxicity against human SNB19 cells assessed as growth inhibition at 10 uM after 48 hrs by coulter counter analysis; conditions: SNB-19, 48 h, read-out: GI
[14] = test system: SNB-75; assay: Cytotoxicity against human SNB75 cells assessed as growth inhibition at 10 uM after 48 hrs by coulter counter analysis; conditions: SNB-75, 48 h, read-out: GI
[15] = test system: IGROV-1; assay: Cytotoxicity against human IGROV1 cells assessed as growth inhibition at 10 uM after 48 hrs by coulter counter analysis; conditions: IGROV-1, 48 h, read-out: GI
[16] = test system: T47D; assay: Cytotoxicity against human T47D cells assessed as growth inhibition at 10 uM after 48 hrs by coulter counter analysis; conditions: read-out: GI
[17] = test system: 786-0; assay: Cytotoxicity against human 786-0 cells assessed as growth inhibition at 10 uM after 48 hrs by coulter counter analysis; conditions: 786-0, 48 h, read-out: GI
[18] = test system: MDA-MB-231; assay: Cytotoxicity against human MDA-MB-231 cells assessed as growth inhibition at 10 uM after 48 hrs by coulter counter analysis; conditions: MDA-MB-231, 48 h, read-out: GI
[19] = test system: SF-539; assay: Cytotoxicity against human SF539 cells assessed as growth inhibition at 10 uM after 48 hrs by coulter counter analysis; conditions: SF-539, 48 h, read-out: GI
[20] = test system: OVCAR-5; assay: Cytotoxicity against human OVCAR5 cells assessed as growth inhibition at 10 uM after 48 hrs by coulter counter analysis; conditions: OVCAR-5, 48 h, read-out: GI
[21] = test system: COLO 205; assay: Cytotoxicity against human COLO205 cells assessed as growth inhibition at 10 uM after 48 hrs by coulter counter analysis; conditions: COLO 205, 48 h, read-out: GI
[22] = test system: BT-549; assay: Cytotoxicity against human BT549 cells assessed as growth inhibition at 10 uM after 48 hrs by coulter counter analysis; conditions: BT-549, 48 h, read-out: GI
[23] = test system: MDA-MB-435; assay: Cytotoxicity against human MDA-MB-435 cells assessed as growth inhibition at 10 uM after 48 hrs by coulter counter analysis; conditions: MDA-MB-435, 48 h, read-out: GI
[24] = test system: MCF7; assay: Cytotoxicity against human MCF7 cells assessed as growth inhibition at 10 uM after 48 hrs by coulter counter analysis; conditions: MCF7, 48 h, read-out: GI
[25] = test system: UO-31; assay: Cytotoxicity against human UO31 cells assessed as growth inhibition at 10 uM after 48 hrs by coulter counter analysis; conditions: UO-31, 48 h, read-out: GI
[26] = test system: OVCAR-8; assay: Cytotoxicity against human OVCAR8 cells assessed as growth inhibition at 10 uM after 48 hrs by coulter counter analysis; conditions: OVCAR-8, 48 h, read-out: GI
[27] = test system: LOX IMVI; assay: Cytotoxicity against human LOXIMVI cells assessed as growth inhibition at 10 uM after 48 hrs by coulter counter analysis; conditions: read-out: GI
[28] = test system: NCI-H460; assay: Cytotoxicity against human NCI-H460 cells assessed as growth inhibition at 10 uM after 48 hrs by coulter counter analysis; conditions: NCI-H460, 48 h, read-out: GI
[29] = test system: MDA-MB-468; assay: Cytotoxicity against human MDA-MB-468 cells assessed as growth inhibition at 10 uM after 48 hrs by coulter counter analysis; conditions: MDA-MB-468, 48 h, read-out: GI
[30] = test system: HCC 2998; assay: Cytotoxicity against human HCC2998 cells assessed as growth inhibition at 10 uM after 48 hrs by coulter counter analysis; conditions: HCC 2998, 48 h, read-out: GI
[31] = test system: UACC-257; assay: Cytotoxicity against human UACC257 cells assessed as growth inhibition at 10 uM after 48 hrs by coulter counter analysis; conditions: UACC-257, 48 h, read-out: GI
[32] = test system: SW-620; assay: Cytotoxicity against human SW620 cells assessed as growth inhibition at 10 uM after 48 hrs by coulter counter analysis; conditions: SW-620, 48 h, read-out: GI
[33] = test system: SF-295; assay: Cytotoxicity against human SF295 cells assessed as growth inhibition at 10 uM after 48 hrs by coulter counter analysis; conditions: SF-295, 48 h, read-out: GI
[34] = test system: SK-OV-3; assay: Cytotoxicity against human SKOV3 cells assessed as growth inhibition at 10 uM after 48 hrs by coulter counter analysis; conditions: SK-OV-3, 48 h, read-out: GI
[35] = test system: HCT-116; assay: Cytotoxicity against human HCT116 cells assessed as growth inhibition at 10 uM after 48 hrs by coulter counter analysis; conditions: HCT-116, 48 h, read-out: GI
[36] = test system: A498; assay: Cytotoxicity against human A498 cells assessed as growth inhibition at 10 uM after 48 hrs by coulter counter analysis; conditions: A498, 48 h, read-out: GI
[37] = test system: RXF 393; assay: Cytotoxicity against human RXF393 cells assessed as growth inhibition at 10 uM after 48 hrs by coulter counter analysis; conditions: RXF 393, 48 h, read-out: GI

Structure (SMILES) | inhibition of growth at 10 µM [1] | inhibition of growth at 10 µM [2] | inhibition of growth at 10 µM [3] | inhibition of growth at 10 µM [4] | inhibition of growth at 10 µM [5] | inhibition of growth at 10 µM [6] | inhibition of growth at 10 µM [7] | inhibition of growth at 10 µM [8] | inhibition of growth at 10 µM [9] | inhibition of growth at 10 µM [10] | inhibition of growth at 10 µM [11] | inhibition of growth at 10 µM [12] | inhibition of growth at 10 µM [13] | inhibition of growth at 10 µM [14] | inhibition of growth at 10 µM [15] | inhibition of growth at 10 µM [16] | inhibition of growth at 10 µM [17] | inhibition of growth at 10 µM [18] | inhibition of growth at 10 µM [19] | inhibition of growth at 10 µM [20] | also measured
CCOc1ccc(NC(=O)CSc2nc3ccccc3c(=O)n2CCc2ccccc2)cc1 | < 10% | < 10% | < 10% | < 10% | < 10% | 13% | 12% | < 10% | 11% | < 10% | 37% | < 10% | < 10% | 21% | 21% | 15% | < 10% | 25% | < 10% | < 10% | inhibition of growth at 10 µM [21]: < 10%; inhibition of growth at 10 µM [22]: < 10%; inhibition of growth at 10 µM [23]: 14%; inhibition of growth at 10 µM [24]: 12%; inhibition of growth at 10 µM [25]: 26%; inhibition of growth at 10 µM [26]: 29%; inhibition of growth at 10 µM [27]: 11%; inhibition of growth at 10 µM [28]: 11%; inhibition of growth at 10 µM [29]: 10%; inhibition of growth at 10 µM [30]: < 10%; inhibition of growth at 10 µM [31]: < 10%; inhibition of growth at 10 µM [32]: < 10%; inhibition of growth at 10 µM [33]: < 10%; inhibition of growth at 10 µM [34]: < 10%; inhibition of growth at 10 µM [35]: 16%; inhibition of growth at 10 µM [36]: < 10%; inhibition of growth at 10 µM [37]: 13%
O=C(CSc1nc2ccccc2c(=O)n1CCc1ccccc1)NCc1ccccc1 | 20% | 10% | 29% | 20% | 13% | 17% | 32% | < 10% | 28% | 19% | 14% | 22% | 17% | 38% | 39% | 20% | 15% | 37% | 38% | < 10% | inhibition of growth at 10 µM [21]: < 10%; inhibition of growth at 10 µM [22]: < 10%; inhibition of growth at 10 µM [23]: 19%; inhibition of growth at 10 µM [24]: 21%; inhibition of growth at 10 µM [25]: 33%; inhibition of growth at 10 µM [26]: 40%; inhibition of growth at 10 µM [27]: 17%; inhibition of growth at 10 µM [28]: 29%; inhibition of growth at 10 µM [29]: < 10%; inhibition of growth at 10 µM [30]: < 10%; inhibition of growth at 10 µM [31]: < 10%; inhibition of growth at 10 µM [32]: < 10%; inhibition of growth at 10 µM [33]: 27%; inhibition of growth at 10 µM [34]: 14%; inhibition of growth at 10 µM [35]: 27%; inhibition of growth at 10 µM [36]: < 10%; inhibition of growth at 10 µM [37]: 16%
CCOC(=O)c1ccc(NC(=O)CSc2nc3ccccc3c(=O)n2CCc2ccccc2)cc1 | < 10% | 13% | 10% | < 10% | 10% | 27% | 19% | 11% | 26% | 19% | 23% | 21% | 36% | 39% | 31% | 17% | < 10% | 48% | < 10% | 15% | inhibition of growth at 10 µM [21]: 22%; inhibition of growth at 10 µM [22]: 12%; inhibition of growth at 10 µM [23]: 16%; inhibition of growth at 10 µM [24]: 12%; inhibition of growth at 10 µM [25]: 10%; inhibition of growth at 10 µM [26]: 37%; inhibition of growth at 10 µM [27]: 22%; inhibition of growth at 10 µM [28]: 23%; inhibition of growth at 10 µM [29]: 18%; inhibition of growth at 10 µM [30]: < 10%; inhibition of growth at 10 µM [31]: 29%; inhibition of growth at 10 µM [32]: 11%; inhibition of growth at 10 µM [33]: 25%; inhibition of growth at 10 µM [34]: 19%; inhibition of growth at 10 µM [35]: 14%; inhibition of growth at 10 µM [36]: < 10%; inhibition of growth at 10 µM [37]: 14%
O=C(CSc1nc2ccccc2c(=O)n1CCc1ccccc1)Nc1ccccc1C(=O)O | 19% | 29% | < 10% | 12% | 30% | 46% | < 10% | 10% | 85% | 34% | 18% | 35% | 40% | 74% | 42% | 27% | 16% | 45% | 44% | < 10% | inhibition of growth at 10 µM [21]: 35%; inhibition of growth at 10 µM [22]: 10%; inhibition of growth at 10 µM [23]: 35%; inhibition of growth at 10 µM [24]: 21%; inhibition of growth at 10 µM [25]: < 10%; inhibition of growth at 10 µM [26]: 61%; inhibition of growth at 10 µM [27]: 38%; inhibition of growth at 10 µM [28]: 41%; inhibition of growth at 10 µM [29]: 14%; inhibition of growth at 10 µM [30]: < 10%; inhibition of growth at 10 µM [31]: 35%; inhibition of growth at 10 µM [32]: 21%; inhibition of growth at 10 µM [33]: 18%; inhibition of growth at 10 µM [34]: 53%; inhibition of growth at 10 µM [35]: 45%; inhibition of growth at 10 µM [36]: 26%; inhibition of growth at 10 µM [37]: 25%
